The text below walks through data of PMC3913610, “Antitumor Activity and Induction of TP53-Dependent Apoptosis toward Ovarian Clear Cell Adenocarcinoma by the Dual PI3K/mTOR Inhibitor DS-7423” (PLoS ONE, 2014).

Each structure is given as a SMILES string.

The test system of one experiment is OCCA cell lines. Briefly: Apoptosis by annexin-V FITC/PI staining, OCCA panel. Type of experiment: cell-based. As to conditions: OCCA cells, even at 2,500 nM. As to the method:
Cells (5×10^5) were cultured in 60-mm plates for 24 h before treatment with either DMSO (control), and 156 nM DS-7423, or 2,500 nM DS-7423 for 48 h. Cells were trypsinized, washed twice with PBS, and then analyzed after double staining with annexin-V fluorescein isothiocyanate (FITC) (Abcam, Cambridge, MA) and PI. The apoptotic cell population was analyzed using flow cytometry. All experiments were performed three times.

The test system of another experiment is OVMANA cells. Briefly: Proliferation (MTT/WST-8) assay. Format: cell-based. As to conditions: 72 h. The protocol: (§1) Assays of the suppression of cell proliferation were performed with the Cell Counting Kit-8 using the tetrazolium salt WST-8 [2-(2-methoxy-4-nitrophenyl)-3-(4-nitrophenyl)-5-(2,4-disulfophenyl)-2H-tetrazolium, monosodium salt] (Dojindo, Tokyo, Japan) for the methyl thiazolyl tetrazolium (MTT) assay. […] Proliferation was quantified by monitoring the changes in the absorbance at 450 nm, which were normalized relative to the absorbance of cell cultures treated with DMSO alone.

Another experiment has as its system SKOV3 cells. Briefly: Proliferation (MTT/WST-8) assay. Type of experiment: cell-based. As to conditions: Homo sapiens, SK-OV-3; SKOV3, 72 h. As to the method:
as §1

In a further experiment the test system is OVTOKO cells. Briefly: Proliferation (MTT/WST-8) assay. Format: cell-based. To be noted: 72 h. The protocol: as §1
The test system of the next experiment is JHOC-7 cells. Briefly: Proliferation (MTT/WST-8) assay. Format: cell-based. To be noted: JHOC-7, 72 h. The protocol: as §1
For a further experiment, the system named is RMG-I cells. Briefly: Proliferation (MTT/WST-8) assay. Format: cell-based. As to conditions: Homo sapiens, RMG-1, 72 h. The protocol: as §1
For experiment [1], the system named is phosphorylation of AKT, S6, FOXO1/3a in OCCA cells. Briefly: Immunoblotting of PI3K/mTOR signaling in OCCA cells. To be noted: OVISE. Type of experiment: cell-based. From the text:
Signals were detected using BioRAD western blotting systems (BioRAD, Hercules, CA) with the detection reagents ECL advance and ECL select (GE Healthcare, Piscataway, NJ).

The next experiment relates to recurrent OCCA. Details: method as in PMID 21243393. As to conditions: six cases, weekly administration, recurrent OCCA patients ref 39; cited from earlier work.

Take `CO[C@H]1C[C@@H]2CC[C@@H](C)[C@@](O)(O2)C(=O)C(=O)N2CCCC[C@H]2C(=O)O[C@H]([C@H](C)C[C@@H]2CC[C@@H](O)[C@H](OC)C2)CC(=O)[C@H](C)/C=C(\C)[C@@H](O)[C@@H](OC)C(=O)[C@H](C)C[C@H](C)/C=C/C=C/C=C/1C` [rapamycin]: in the experiment with OCCA cell lines, the apoptotic cell death was ≤ 5%. The IC50 in the experiment on OVMANA cells, with SKOV3 cells, in the experiment with OVTOKO cells, with JHOC-7 cells and with RMG-I cells was > 2560 nM throughout. In experiment [1] (2,500 nM), the “levels of p-FOXO3a and p-FOXO1” value is recorded as “increased”. For the same compound, the “suppression of p-Akt” value in experiment [1] (any dose (0 to 2,500 nM)) was “did not suppress”.
Consider `CO[C@H]1C[C@@H]2CC[C@@H](C)[C@@](O)(O2)C(=O)C(=O)N2CCCC[C@H]2C(=O)O[C@H]([C@H](C)C[C@@H]2CC[C@@H](OC(=O)C(C)(CO)CO)[C@H](OC)C2)CC(=O)[C@H](C)/C=C(\C)[C@@H](O)[C@@H](OC)C(=O)[C@H](C)C[C@H](C)/C=C/C=C/C=C/1C` [temsirolimus], for which the clinical response entry in the experiment on recurrent OCCA was “partial response in one patient and stable disease in another patient”.
